Results reported in PubChem BioAssay AID2060352 (Molecular Pharmacology Branch, DTP, NCI, 2025).
Values joined by “and” are separate entries in the source; they are usually repeats but may differ in a detail not shown here. Equal values may be shown once.

System: 616215-338-R-J1-PDC spheroid with HUVEC/MSC, viability
Test: Anticancer human tumor 616215-338-R-J1-PDC patient-derived colon adenocarcinoma cell line growth inhibition [TAK]
Conditions: for viability, T/C: stronger effect = lower value; active means viability on the fitted dose curve at most 10% of control; inactive means the rest
From the text: Combinatorial screen of targeted agents with TAK-243 and ipatasertib in multi-cell type tumor spheroids
A high-throughput screen of multi-cell type tumor spheroids was designed to identify active combinations of targeted small molecules and TAK-243 or ipatasertib. Complex spheroids include a stromal component modeled by human endothelial cells (HUVEC) and fibroblasts modeled by human mesenchymal stem cells (MSCs). The concentration ranges selected for each drug and investigational agent were based upon clinically achievable concentrations if the clinical Cmax of the agent was known.
Compounds. The drugs and investigational agents: TAK-243 (785004), ipatasertib (767898), everolimus (733504), selumetinib (741078), bortezomib (756655), trametinib (758246), ixazomib (758254), vemurafenib (761431), dabrafenib (764134), sapanisertib (764658), alpelisib (765974), and copanlisib (816437), were obtained from the National Cancer Institute (NCI) Developmental Therapeutics Program Chemical Repository. The FDA-approved anticancer drug set is available from the NCI Developmental Therapeutics Program. […] The stock solutions were prepared in dimethyl sulfoxide (DMSO, Sigma-Aldrich, St. Louis, MO, cat. D2650) at 800-fold the tested concentration and stored at -70 degrees C prior to their use. All drugs and investigational agents were tested over a range starting from a high concentration at or near the clinical Cmax and decreasing in half-log increments. If the clinical Cmax for an agent had not been determined, the highest concentration tested was 10 microM.
NCI60 Cell Culture. NCI60 cell lines were obtained from the NCI Developmental Therapeutics Program Tumor Repository. For each lot of cells, the Repository performed Applied Biosystems AmpFLSTR Identifiler testing with PCR amplification to confirm consistency with the published Identifier STR profile for each cell line. Cells were kept in continuous culture for no more than 20 passages. The optimal seeding densities for each of the cell lines at each time point assessed were determined prior to performing the concentration response studies. Briefly, the NCI60 human tumor lines were grown as monolayers in RPMI 1640 medium supplemented with 10% FBS and 2 mmol/L L-glutamine.
An additional 2 lines were from the NCI60 cell line panel including melanomas, MALME-3M and SK-MEL-2. Pooled donor human umbilical vein endothelial cells (HUVEC, Lonza, cat. CC-2519) and human mesenchymal stem cells (hMSC, Lonza, cat. PT-2501) were purchased from Lonza (Walkersville, MD).
PDMR cell lines were grown in complete medium (DC medium): Dulbecco's modified Eagle's medium (DMEM)/F12 supplemented with 5% fetal bovine serum (FBS), 2 mM L-glutamine, 100 U/mL penicillin and 100 µg/ml streptomycin, 0.4 µg/ml hydrocortisone, 10 ng/ml epidermal growth factor (EGF) recombinant human protein, 24 µg/mL adenine, and 0.1 mg/mL primocin. During culture from frozen stock vials, PDMR cells were cultured in the same medium containing 10 µM Y-27632 (see Table 3). The PDCs were cultured in complete DMEM/F12 media without 10 microM Y-27632 dihydrochloride for at least two passages prior to the screen. The pooled donor HUVEC and hMSC were cultured in endothelial cell growth medium 2 (PromoCell, Heidelberg, Germany, cat. C-22011) and mesenchymal stem cell growth medium 2 (PromoCell, cat. C-28009), respectively. For all experiments, HUVEC and hMSC were used at passages </=5.
For the pre-screen, cell seeding densities were determined from a titration spanning the range from 5,000 to 313 cells per well. The mct-spheroids including 60% malignant cells, 25% HUVEC and 15% MSC dispensed as a mixture into U-bottom Ultra-Low Attachment 384-well plates (Corning, NY)
High-throughput Drug Combination Screening.
Prior to their inoculation into 384-well plates, malignant cells, HUVEC, and hMSC were removed from T flasks using TrypLE express (Thermo Fisher Scientific, cat. 12605036) and harvested by centrifugation for 5 min at 233 x g. […]
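Further: spheroids exposed to drugs for 7 days before readout.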

CC(=O)Nc1cccc(-n2c(=O)n(C3CC3)c(=O)c3c(Nc4ccc(I)cc4F)n(C)c(=O)c(C)c32)c1
5.55% and 17.7%: viability, T/C (compound 0.03 µM)
inactive: viability, T/C (compound 94.9 pM) 97% and 104% | viability, T/C (compound 0.0003 µM) 110% and 106% | viability, T/C (compound 0.000949 µM) 134% and 90.8% | viability, T/C (compound 0.003 µM) 90.5% and 64% | viability, T/C (compound 0.00949 µM) 33.2% and 29.1%
6.78 nM and 4.71 nM: IC50 (curve of compound)

CC(C)(C)c1nc(-c2cccc(NS(=O)(=O)c3c(F)cccc3F)c2F)c(-c2ccnc(N)n2)s1
inactive: viability, T/C (compound 0.0316 µM) 104% and 106% | viability, T/C (compound 0.1 µM) 123% and 114% | viability, T/C (compound 0.316 µM) 132% and 107% | viability, T/C (compound 1 µM) 119% and 95.5% | viability, T/C (compound 3.16 µM) 73.2% and 54.6% | viability, T/C (compound 10 µM) 18.3% and 28.5%
5150 nM and 3870 nM: IC50 (curve of compound)

CC(C)CC(NC(=O)C(Cc1ccccc1)NC(=O)c1cnccn1)B(O)O (configuration not stated)
> 10 nM and 5.79 nM: IC50 (curve of compound)
inactive: viability, T/C (compound 31.6 pM) 98.1% and 102% | viability, T/C (compound 0.0001 µM) 115% and 110% | viability, T/C (compound 0.000316 µM) 101% and 108% | viability, T/C (compound 0.001 µM) 92.3% and 103% | viability, T/C (compound 0.00316 µM) 107% and 102%

CC(C)CC(NC(=O)CNC(=O)c1cc(Cl)ccc1Cl)B1OC(=O)CC(CC(=O)O)(C(=O)O)O1 (configuration not stated)
active: viability, T/C (compound 0.1 µM) 0.16% and 0.17%
7.86% and 10.7%: viability, T/C (compound 0.0316 µM)
inactive: viability, T/C (compound 0.000316 µM) 93.3% and 102% | viability, T/C (compound 0.001 µM) 97.9% and 110% | viability, T/C (compound 0.00316 µM) 104% and 111% | viability, T/C (compound 0.01 µM) 95.5% and 107%
18.2 nM and 19.7 nM: IC50 (curve of compound)

CC(C)NCC(C(=O)N1CCN(c2ncnc3c2C(C)CC3O)CC1)c1ccc(Cl)cc1 (configuration not stated)
5.01 µM [middle of 5 runs]: IC50 (compound alone, run of 03/19/2020)
6.46 µM [middle of 5 runs]: IC50 (compound alone, run of 02/20/2020)
inactive: viability, T/C (compound 9.49 µM) 26.9% [middle of 10 runs] | viability, T/C (compound 30 µM) 12.7% [middle of 10 runs]

CC(C)n1nc(-c2ccc3oc(N)nc3c2)c2c(N)ncnc21
inactive: viability, T/C (compound 0.000316 µM) 95.9% and 105% | viability, T/C (compound 0.001 µM) 115% and 107% | viability, T/C (compound 0.00316 µM) 99.9% and 114% | viability, T/C (compound 0.01 µM) 112% and 130% | viability, T/C (compound 0.0316 µM) 127% and 146% | viability, T/C (compound 0.1 µM) 94% and 38%
> 100 nM and 84.7 nM: IC50 (curve of compound)

CCCS(=O)(=O)Nc1ccc(F)c(C(=O)c2c[nH]c3ncc(-c4ccc(Cl)cc4)cc23)c1F
inactive: viability, T/C (compound 0.316 µM) 110% and 87.2% | viability, T/C (compound 1 µM) 99.9% and 99.5% | viability, T/C (compound 3.16 µM) 90.2% and 81% | viability, T/C (compound 10 µM) 16.4% and 24.1% | viability, T/C (compound 31.6 µM) 106% and 4.96% | viability, T/C (compound 100 µM) 64.9% and 98.7%

COC1CC2CCC(C)C(O)(O2)C(=O)C(=O)N2CCCCC2C(=O)OC(C(C)CC2CCC(OCCO)C(OC)C2)CC(=O)C(C)C=C(C)C(O)C(OC)C(=O)C(C)CC(C)C=CC=CC=C1C (configuration not stated)
inactive: viability, T/C (compound 0.000316 µM) 98.5% and 109% | viability, T/C (compound 0.001 µM) 93.9% and 116% | viability, T/C (compound 0.00316 µM) 96.7% and 111% | viability, T/C (compound 0.01 µM) 107% and 112% | viability, T/C (compound 0.0316 µM) 110% and 117% | viability, T/C (compound 0.1 µM) 110% and 83%
> 100 nM: IC50 (curve of compound)

COc1c(OCCCN2CCOCC2)ccc2c3n(c(=NC(=O)c4cnc(N)nc4)nc12)CCN3
129 nM and 118 nM: IC50 (curve of compound)
inactive: viability, T/C (compound 0.00316 µM) 108% and 106% | viability, T/C (compound 0.01 µM) 108% and 113% | viability, T/C (compound 0.0316 µM) 117% and 114% | viability, T/C (compound 0.1 µM) 57.7% and 54.2% | viability, T/C (compound 0.316 µM) 27.8% and 31.5% | viability, T/C (compound 1 µM) 17.4% and 16.5%

Cc1nc(NC(=O)N2CCCC2C(N)=O)sc1-c1ccnc(C(C)(C)C(F)(F)F)c1 (configuration not stated)
inactive: viability, T/C (compound 0.0316 µM) 118% and 104% | viability, T/C (compound 0.1 µM) 107% and 117% | viability, T/C (compound 0.316 µM) 120% and 111% | viability, T/C (compound 1 µM) 105% and 108% | viability, T/C (compound 3.16 µM) 106% and 111% | viability, T/C (compound 10 µM) 106% and 91.4%
> 10000 nM: IC50 (curve of compound)

Cn1cnc2c(F)c(Nc3ccc(Br)cc3Cl)c(C(=O)NOCCO)cc21
632 nM and 695 nM: IC50 (curve of compound)
inactive: viability, T/C (compound 0.00949 µM) 115% and 123% | viability, T/C (compound 0.03 µM) 109% and 107% | viability, T/C (compound 0.0949 µM) 98.8% and 134% | viability, T/C (compound 0.3 µM) 64.2% and 90.9% | viability, T/C (compound 0.949 µM) 43.6% and 36.8% | viability, T/C (compound 3 µM) 28.2% and 22.3%

COC1CC2CCC(C)C(O)(O2)C(=O)C(=O)N2CCCCC2C(=O)OC(C(C)CC2CCC(OCCO)C(OC)C2)CC(=O)C(C)C=C(C)C(O)C(OC)C(=O)C(C)CC(C)C=CC=CC=C1C (configuration not stated) + CC(C)NCC(C(=O)N1CCN(c2ncnc3c2C(C)CC3O)CC1)c1ccc(Cl)cc1
< 0.316 nM: IC50 (curve of first compound, second compound 9.49 µM) | IC50 (curve of first compound, second compound 30 µM)
active: viability, T/C (second compound 30 µM, first compound 0.000316 µM) 9.82% | viability, T/C (second compound 30 µM, first compound 0.001 µM) 9.86% | viability, T/C (second compound 30 µM, first compound 0.00316 µM) 10.5% | viability, T/C (second compound 30 µM, first compound 0.01 µM) 9.81% | viability, T/C (second compound 30 µM, first compound 0.0316 µM) 8.34% | viability, T/C (second compound 30 µM, first compound 0.1 µM) 7.96%
> 100 nM: IC50 (curve of first compound, second compound 0.3 µM) | IC50 (curve of first compound, second compound 0.949 µM)
inactive: viability, T/C (second compound 0.3 µM, first compound 0.000316 µM) 133% | viability, T/C (second compound 0.3 µM, first compound 0.001 µM) 119% | viability, T/C (second compound 0.3 µM, first compound 0.00316 µM) 137% | viability, T/C (second compound 0.3 µM, first compound 0.01 µM) 129% | viability, T/C (second compound 0.3 µM, first compound 0.0316 µM) 130% | viability, T/C (second compound 0.3 µM, first compound 0.1 µM) 104% | viability, T/C (second compound 0.949 µM, first compound 0.000316 µM) 119% | viability, T/C (second compound 0.949 µM, first compound 0.001 µM) 125% | viability, T/C (second compound 0.949 µM, first compound 0.00316 µM) 111% | viability, T/C (second compound 0.949 µM, first compound 0.01 µM) 97.1% | viability, T/C (second compound 0.949 µM, first compound 0.0316 µM) 82.5% | viability, T/C (second compound 0.949 µM, first compound 0.1 µM) 80.3% | viability, T/C (second compound 3 µM, first compound 0.000316 µM) 61.5% | viability, T/C (second compound 3 µM, first compound 0.001 µM) 59.3% | viability, T/C (second compound 3 µM, first compound 0.00316 µM) 45.6% | viability, T/C (second compound 3 µM, first compound 0.01 µM) 38.3% | viability, T/C (second compound 3 µM, first compound 0.0316 µM) 35.8% | viability, T/C (second compound 3 µM, first compound 0.1 µM) 32.1% | viability, T/C (second compound 9.49 µM, first compound 0.000316 µM) 23.1% | viability, T/C (second compound 9.49 µM, first compound 0.001 µM) 20% | viability, T/C (second compound 9.49 µM, first compound 0.00316 µM) 17.2% | viability, T/C (second compound 9.49 µM, first compound 0.01 µM) 16.2% | viability, T/C (second compound 9.49 µM, first compound 0.0316 µM) 15.8% | viability, T/C (second compound 9.49 µM, first compound 0.1 µM) 14.9%
2.28 nM: IC50 (curve of first compound, second compound 3 µM)
